# Source: PubChem BioAssay AID1918946 (Molecular Pharmacology Branch, DTP, NCI, 2023)
# Test system: 885512-296-R-J2-PDC complex spheroid viability
# Assay: Anticancer human tumor 885512-296-R-J2-PDC patient-derived breast carcinoma cell line growth inhibition
# Conditions: for IC50: curve of first compound; for viability, T/C: stronger effect = lower value
# In short: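 Complex spheroids of tumor cells with HUVEC and human MSCs, exposed to iadademstat combined with other agents. Each agent tested in half-log steps from near clinical Cmax (else 10 microM top), DMSO ≤0.25%.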
# [1] = second compound 0.1 µM, first compound 0.0316 µM
# [2] = second compound 0.1 µM, first compound 0.1 µM
# [3] = second compound 0.1 µM, first compound 0.316 µM
# [4] = second compound 0.1 µM, first compound 1 µM
# [5] = second compound 0.316 µM, first compound 0.0316 µM
# [6] = second compound 0.316 µM, first compound 0.1 µM
# [7] = second compound 0.316 µM, first compound 0.316 µM
# [8] = second compound 0.316 µM, first compound 1 µM
# [9] = second compound 1 µM, first compound 0.0316 µM
# [10] = second compound 1 µM, first compound 0.1 µM
# [11] = second compound 1 µM, first compound 0.316 µM
# [12] = second compound 1 µM, first compound 1 µM
# [13] = second compound 3.16 µM, first compound 0.0316 µM
# [14] = second compound 3.16 µM, first compound 0.1 µM
# [15] = second compound 3.16 µM, first compound 0.316 µM
# [16] = second compound 3.16 µM, first compound 1 µM
# [17] = second compound 10 µM, first compound 0.0316 µM
# [18] = second compound 10 µM, first compound 0.1 µM
# [19] = second compound 10 µM, first compound 0.316 µM
# [20] = second compound 10 µM, first compound 1 µM
# [21] = second compound 0.1 µM, first compound 0.00949 µM
# [22] = second compound 0.1 µM, first compound 0.03 µM
# [23] = second compound 0.1 µM, first compound 0.0949 µM
# [24] = second compound 0.1 µM, first compound 0.3 µM
# [25] = second compound 0.316 µM, first compound 0.00949 µM
# [26] = second compound 0.316 µM, first compound 0.03 µM
# [27] = second compound 0.316 µM, first compound 0.0949 µM
# [28] = second compound 0.316 µM, first compound 0.3 µM
# [29] = second compound 1 µM, first compound 0.00949 µM
# [30] = second compound 1 µM, first compound 0.03 µM
# [31] = second compound 1 µM, first compound 0.0949 µM
# [32] = second compound 1 µM, first compound 0.3 µM
# [33] = second compound 3.16 µM, first compound 0.00949 µM
# [34] = second compound 3.16 µM, first compound 0.03 µM
# [35] = second compound 3.16 µM, first compound 0.0949 µM
# [36] = second compound 3.16 µM, first compound 0.3 µM
# [37] = second compound 10 µM, first compound 0.00949 µM
# [38] = second compound 10 µM, first compound 0.03 µM
# [39] = second compound 10 µM, first compound 0.0949 µM
# [40] = second compound 10 µM, first compound 0.3 µM
# 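Further: spheroids exposed to agents for 7 days before viability read.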
structure (smiles),measurement,setting,value
CC1COCCN1c1cc(C2(S(C)(=N)=O)CC2)nc(-c2ccnc3[nH]ccc23)n1 (stereo not given) + NC1CC1c1ccc(-c2cccc(O)c2)cc1,IC50,second compound 0.1 µM,501 nM
same,IC50,second compound 0.316 µM,466 nM
same,IC50,second compound 1 µM,338 nM
same,IC50,second compound 3.16 µM,412 nM
same,IC50,second compound 10 µM,216 nM
same,"viability, T/C",[1],110%
same,"viability, T/C",[2],116%
same,"viability, T/C",[3],76.1%
same,"viability, T/C",[4],11.1%
same,"viability, T/C","second compound 0.1 µM, first compound 3.16 µM",3.64%
same,"viability, T/C","second compound 0.1 µM, first compound 10 µM",2.7%
same,"viability, T/C",[5],139%
same,"viability, T/C",[6],112%
same,"viability, T/C",[7],72.3%
same,"viability, T/C",[8],10.7%
same,"viability, T/C","second compound 0.316 µM, first compound 3.16 µM",3.33%
same,"viability, T/C","second compound 0.316 µM, first compound 10 µM",2.63%
same,"viability, T/C",[9],118%
same,"viability, T/C",[10],113%
same,"viability, T/C",[11],52.3%
same,"viability, T/C",[12],8.24%
same,"viability, T/C","second compound 1 µM, first compound 3.16 µM",3.25%
same,"viability, T/C","second compound 1 µM, first compound 10 µM",2.72%
same,"viability, T/C",[13],114%
same,"viability, T/C",[14],101%
same,"viability, T/C",[15],63.1%
same,"viability, T/C",[16],9.16%
same,"viability, T/C","second compound 3.16 µM, first compound 3.16 µM",3.38%
same,"viability, T/C","second compound 3.16 µM, first compound 10 µM",2.43%
same,"viability, T/C",[17],79.9%
same,"viability, T/C",[18],76.5%
same,"viability, T/C",[19],37%
same,"viability, T/C",[20],8.1%
same,"viability, T/C","second compound 10 µM, first compound 3.16 µM",3.13%
same,"viability, T/C","second compound 10 µM, first compound 10 µM",2.67%
CCN(c1cc(-c2ccc(CN3CCOCC3)cc2)cc(C(=O)NCc2c(C)cc(C)[nH]c2=O)c1C)C1CCOCC1 + NC1CC1c1ccc(-c2cccc(O)c2)cc1,IC50,second compound 0.1 µM,158 nM
same,IC50,second compound 0.316 µM,165 nM
same,IC50,second compound 1 µM,151 nM
same,IC50,second compound 3.16 µM,153 nM
same,IC50,second compound 10 µM,93.1 nM
same,"viability, T/C",[21],106%
same,"viability, T/C",[22],108%
same,"viability, T/C",[23],67.2%
same,"viability, T/C",[24],26.9%
same,"viability, T/C","second compound 0.1 µM, first compound 0.949 µM",19.2%
same,"viability, T/C","second compound 0.1 µM, first compound 3 µM",7.41%
same,"viability, T/C",[25],120%
same,"viability, T/C",[26],103%
same,"viability, T/C",[27],65.8%
same,"viability, T/C",[28],31.9%
same,"viability, T/C","second compound 0.316 µM, first compound 0.949 µM",16.2%
same,"viability, T/C","second compound 0.316 µM, first compound 3 µM",7.17%
same,"viability, T/C",[29],120%
same,"viability, T/C",[30],105%
same,"viability, T/C",[31],60.6%
same,"viability, T/C",[32],31.1%
same,"viability, T/C","second compound 1 µM, first compound 0.949 µM",16.7%
same,"viability, T/C","second compound 1 µM, first compound 3 µM",6.44%
same,"viability, T/C",[33],100%
same,"viability, T/C",[34],86.6%
same,"viability, T/C",[35],63.2%
same,"viability, T/C",[36],31.6%
same,"viability, T/C","second compound 3.16 µM, first compound 0.949 µM",16.8%
same,"viability, T/C","second compound 3.16 µM, first compound 3 µM",7.23%
same,"viability, T/C",[37],84%
same,"viability, T/C",[38],78.7%
same,"viability, T/C",[39],48.2%
same,"viability, T/C",[40],21.1%
same,"viability, T/C","second compound 10 µM, first compound 0.949 µM",12.8%
same,"viability, T/C","second compound 10 µM, first compound 3 µM",6.35%
Nc1ncn(C2CC(O)C(CO)S2)c(=O)n1 (stereo not given) + NC1CC1c1ccc(-c2cccc(O)c2)cc1,IC50,second compound 0.1 µM,4.6 nM
same,IC50,second compound 0.316 µM,4.26 nM
same,IC50,second compound 1 µM,4.39 nM
same,IC50,second compound 3.16 µM,2.81 nM
same,IC50,second compound 10 µM,0.989 nM
same,"viability, T/C","second compound 0.1 µM, first compound 0.000949 µM",91.2%
same,"viability, T/C","second compound 0.1 µM, first compound 0.003 µM",62%
same,"viability, T/C",[21],29.4%
same,"viability, T/C",[22],15.9%
same,"viability, T/C",[23],8.39%
same,"viability, T/C",[24],4.32%
same,"viability, T/C","second compound 0.316 µM, first compound 0.000949 µM",84.1%
same,"viability, T/C","second compound 0.316 µM, first compound 0.003 µM",60.6%
same,"viability, T/C",[25],26.1%
same,"viability, T/C",[26],14.8%
same,"viability, T/C",[27],8.48%
same,"viability, T/C",[28],4.51%
same,"viability, T/C","second compound 1 µM, first compound 0.000949 µM",75%
same,"viability, T/C","second compound 1 µM, first compound 0.003 µM",60.4%
same,"viability, T/C",[29],29.5%
same,"viability, T/C",[30],13.8%
same,"viability, T/C",[31],7.96%
same,"viability, T/C",[32],4.21%
same,"viability, T/C","second compound 3.16 µM, first compound 0.000949 µM",61.6%
same,"viability, T/C","second compound 3.16 µM, first compound 0.003 µM",50.2%
same,"viability, T/C",[33],25.9%
same,"viability, T/C",[34],12.9%
same,"viability, T/C",[35],6.26%
same,"viability, T/C",[36],4.09%
same,"viability, T/C","second compound 10 µM, first compound 0.000949 µM",50.1%
same,"viability, T/C","second compound 10 µM, first compound 0.003 µM",39.8%
same,"viability, T/C",[37],17.2%
same,"viability, T/C",[38],9.45%
same,"viability, T/C",[39],5.85%
same,"viability, T/C",[40],3.58%
O=C(C=Cn1cnc(-c2cc(C(F)(F)F)cc(C(F)(F)F)c2)n1)NNc1cnccn1 + NC1CC1c1ccc(-c2cccc(O)c2)cc1,IC50,second compound 0.1 µM,< 3.16 nM
same,IC50,second compound 0.316 µM,< 3.16 nM
same,IC50,second compound 1 µM,< 3.16 nM
same,IC50,second compound 3.16 µM,< 3.16 nM
same,IC50,second compound 10 µM,< 3.16 nM
same,"viability, T/C","second compound 0.1 µM, first compound 0.00316 µM",22.8%
same,"viability, T/C","second compound 0.1 µM, first compound 0.01 µM",11.1%
same,"viability, T/C",[1],1.78%
same,"viability, T/C",[2],0.68%
same,"viability, T/C",[3],0.55%
same,"viability, T/C",[4],0.47%
same,"viability, T/C","second compound 0.316 µM, first compound 0.00316 µM",17.4%
same,"viability, T/C","second compound 0.316 µM, first compound 0.01 µM",11.5%
same,"viability, T/C",[5],1.98%
same,"viability, T/C",[6],0.67%
same,"viability, T/C",[7],0.5%
same,"viability, T/C",[8],0.4%
same,"viability, T/C","second compound 1 µM, first compound 0.00316 µM",19%
same,"viability, T/C","second compound 1 µM, first compound 0.01 µM",10.3%
same,"viability, T/C",[9],2.51%
same,"viability, T/C",[10],0.72%
same,"viability, T/C",[11],0.52%
same,"viability, T/C",[12],0.58%
same,"viability, T/C","second compound 3.16 µM, first compound 0.00316 µM",13.6%
same,"viability, T/C","second compound 3.16 µM, first compound 0.01 µM",10.3%
same,"viability, T/C",[13],2.71%
same,"viability, T/C",[14],0.8%
same,"viability, T/C",[15],0.52%
same,"viability, T/C",[16],0.63%
same,"viability, T/C","second compound 10 µM, first compound 0.00316 µM",14.8%
same,"viability, T/C","second compound 10 µM, first compound 0.01 µM",8.29%
same,"viability, T/C",[17],2.21%
same,"viability, T/C",[18],0.82%
same,"viability, T/C",[19],0.71%
same,"viability, T/C",[20],0.78%
